Measured values published in US12002595B2, “Separation of metal ions by liquid-liquid extraction” (priority 2016, dated 2024).
Where two headings read alike, the source gives them in different places.

How the values were obtained:
[1] = Extraction by TODGA from HNO3 in the absence or presence of 1 mM 343HOPO
Method: Organic phase: 0.1 M TODGA in kerosene. Aqueous solvent: HNO3. T=25° C. O/A=1, one contact. Points with arrows are lower limits.
(§1) For Example 20—Example 24, pH measurements were performed with a glass electrode (Metrohm-Micro Combi-response to [H+]) calibrated at 25.0° C. using three NIST standards. Extraction samples were analyzed by liquid scintillation counting (LSC). The distribution coefficient, D(M), of a given metal, M, is defined in Eq. 1, where [M]organic and [M]aqueous are the respective total concentrations of M in the organic and aqueous layers, after extraction. Both concentrations are proportional to the volumetric activity (in Bq/L) determined by LSC. The separation factor, SFM1/M2, between two metals, M1 and M2, and extraction yield were calculated according to Eq. 2 and Eq. 3, respectively.
(§2) In a typical experiment, the solvent (extractant diluted in kerosene) was pre-conditioned by shaking one volume of solvent with three volumes of aqueous phase (typically HNO3) at room temperature for 1 h, thrice. For radioisotope extractions, at least 400 μL aqueous phase (typically containing HNO3, a chelator and a radioisotope) and solvent were placed in air-tight screw-capped plastic tubes, triply-contained, and shaken in a thermoshaker at 300 rpm, 25° C., for at least 30 min. Samples were then centrifuged for 5 min at 3000 rpm and phases separated before analysis. LSC analyses were performed on a Packard Tri-Carb B4430 instrument (Perkin Elmer) after mixing sample aliquots or sample dilution aliquots (10 to 200 μL) with 10 mL of scintillation cocktail (UltimaGold LLT). Samples were counted for at least 6 min and results were background subtracted. The analytical samples contained between 0 and 800,000 CPM. Mixtures of ^249Bk and ^249Cf were analyzed using α/β discrimination and energy windows were set to 0-50 keV for low-energy β particles of ^249Bk and 50-1000 keV for α particles of ^249Cf. ^243Am and ^225Ac samples were counted at secular equilibrium.

[2] = Extraction by HDEHP with 1 mM 343HOPO in 0.1 M HNO3 and 1.9 M NaNO3
Method: Aqueous phase: 1 mM 343HOPO in 0.1 M HNO3 and 1.9 M NaNO3. Organic phase: HDEHP in kerosene.
A log scale is used for clarity. See FIGS. 58A and 58B for results as a function of the phase ratio.
as §1, §2

[3] = Eu(III), cited from earlier work
[4] = Extraction of plutonium(IV) by HDEHP as a function of pH with hold-back reagent; conditions: for % Extraction: 40 mM hold-back reagent, 0.5 M HDEHP
Method: All liquid-liquid extractions were conducted using a 1:1 organic to aqueous phase ratio for a total volume of 1 mL. Samples were pH adjusted by HNO3 and prepared for a final concentration of 1.0 M sodium lactate, 40 mM of hold-back reagent (160 mM in the case of the HOPO monomer), and 2.0 M Na^+. The concentration of the trivalent f-element was dependent on the availability and radioactivity of the isotopes. The organic phase consisted of 0.5 M HDEHP in kerosene. All samples were incubated in a thermostatic shaker held at 28° C. and rocked at 280 rpm for 90 minutes. To ensure complete phase separation, samples were left overnight at room temperature to equilibrate. Radioactive samples were analyzed by liquid scintillation counting (LSC). The analytical protocol consisted of diluting 10 uL of radioactive sample into 10 mL of Ultima Gold™. Ultima Gold™ is a commercially available analytical reagent commonly used for LSC. The resulting analytical samples were shaken for 10 min prior to counting on a Perkin-Elmer Packard Tri-Carb instrument (model B4430).
Data was analyzed by the distribution ratio (Dm), separation factor (SFm1/m2) and extraction percentage (% Extraction) as defined by Equations (6), (7) and (8), respectively. Equation (8) uses concentrations of the metal in each phase since the aqueous: organic ratio was 1. Both the organic and aqueous phases were analyzed after liquid-liquid extraction and phase separation. These calculation methods rely on the assumptions that no metal (M) is lost to sorption or precipitation and that no volume variation occurred during the mass transfer between the aqueous and organic phases.
In FIG. 18, aqueous phase: [ligand]=40 mM, buffer sodium lactate/sodium nitrate, organic phase: [HDEHP]=0.5 M, kerosene diluent. T=25° C. O/A=1, one contact. Initial metal concentrations: [Pu-242]=5 μM. Phases analyzed after one contact. Contact time: 30 min. Limit of detection: 0.03% of the initial Pu-242 activity. Data for separation of tetravalent metal ions from trivalent metal ions using 3,4,3-LI(1,2-HOPO) as a hold-back reagent for tetravalent metal ions are shown in TABLE 0.1.

[5] = cited from earlier work

O=C(NCCCN(CCCCN(CCCNC(=O)c1cccc(=O)n1O)C(=O)c1cccc(=O)n1O)C(=O)c1cccc(=O)n1O)c1cccc(=O)n1O [3,4,3-LI(1,2-HOPO)]
SFU/Pu ([1]; 1 mM 343HOPO, 0.1 M TODGA in kerosene): around 50,000 | SF values between the trivalent ions and Pu^4+ ([1]; 1 mM 343HOPO, 0.1 M TODGA in kerosene, LoD reached): above 450,000,000 | separation factor for redox-free Pu purification against uranyl ions and trivalent actinides or fission products ([1]; summary statement): over 10^8 | SFBk/Lu ([2]; single step, room temperature, HDEHP-HNO3-343HOPO system): ≤ 320,000 | log β111 ([3]; I=0.1 M at 25° C.): 24.8 | % Extraction ([4]; pH 0.25): 0.00% | % Extraction ([4]; pH 0.85): 0.00% | % Extraction ([4]; pH 1.78): 0.00% | % Extraction ([4]; pH 2.71): 0.00% | % Extraction ([4]; pH 2.87): 0.00% | % Extraction ([4]; pH 3.62): 0.00% | % Extraction ([4]; pH 4.52): 0.00% | extraction yield of Pu^4+ (upper limit, instrumental detection limit) ([4]; value plotted on FIG. 18, all tested pH): ≤ 0.03% | Last pKa [5]: 6.64 | overall acidity (ΣpKa) ([5]; literature value compared with ΣpKa5-8 of 3,4,3-LI(CAM)): 21.2

O=C(O)CN(CCN(CC(=O)O)CC(=O)O)CCN(CC(=O)O)CC(=O)O [DTPA, Diethylenetriaminepentaacetic acid, reference compound]
separation between Bk and Cf ([2]; chelator in place of 343HOPO, acidic conditions): no separation at all | log β111 ([3]; I=2.0 M at 25° C.): 22.56 | % Extraction ([4]; pH 0.40): 95.24% | % Extraction ([4]; pH 1.27): 4.08% | % Extraction ([4]; pH 1.84): 1.17% | % Extraction ([4]; pH 2.55): 0.63% | % Extraction ([4]; pH 2.75): 0.73% | % Extraction ([4]; pH 3.45): 0.65% | % Extraction ([4]; pH 4.29): 0.29% | Last pKa [5]: 10.4
